# System: syngeneic TC-1 cell tumor
# Assay: Tumor growth response (partial responders), Cbl-b inhibitor plus cancer vaccine, Biological Example 11
# Format: in vivo, C57BL/6 mice
# Conditions: significant decrease in tumor volume relative to control mice without Cbl-b inhibitor or vaccine; 10 mice per group
# Protocol: In brief, the combination therapy was tested in C57BL/6 mice bearing a syngeneic TC-1 cell tumor. TC-1 cells were derived from primary murine lung cells, which had been transfected with human papillomavirus strain 16 (HPV16) early proteins 6 and 7 (E6 and E7) and an activated human c-Ha-ras oncogene (Lin et al., Cancer Research, 56: 21-26, 1996). Either 2.5×10^4 (first study) or 5.0×10^4 (second study) TC-1 cells (obtained from Johns Hopkins University) were injected subcutaneously into the mid flank of each mouse. Tumors were allowed to grow to 50-100 mm^3 at which time the animals were randomized and treatment was initiated (Day 0). […]
# Tumor size was recorded twice a week starting on Day 0 (Day 14 post TC-1 injection) and continued through duration of dosing until humane endpoints were reached between Day 33 and Day 42 (=between Day 47 and Day 56 post TC-1 injection). The level of response was evaluated by comparing tumor growth in the test mice versus the control mice (10 mice per group). In addition, the level of immune activation was assessed by collecting tumors for analysis of tumor infiltrating lymphocytes (TILs) on Day 10 (=Day 24 post TC-1 injection) in test and control mice (6 mice per group). […]
smiles,measurement,value
Cc1cc(C(=O)Nc2cccc(C3(Cc4nncn4C)COC3)c2)nc(C2CC2)n1 [Compound 60],partial responders,0/10

# From patent US11530229B2, “Cyano cyclobutyl compounds for CBL-B inhibition and uses thereof” (Nurix Therapeutics, Inc., priority 2019, dated 2022)
